Results published in ChEMBL document CHEMBL3217727, “Berberine azoles as antimicrobial agents: synthesis, biological evaluation and their interactions with human serum albumin” (Medchemcomm, 2013).
In brackets after ≈: the same amount, converted by molar mass.

Legend:
Type in all cases: functional
Staphylococcus aureus [1] = experiment: Antimicrobial activity against Staphylococcus aureus ATCC 25923 after 24 hrs by microbroth dilution method; conditions: ATCC 25923, 24 h
Candida albicans = experiment: Antimicrobial activity against Candida albicans ATCC 90029 after 24 hrs by microbroth dilution method; conditions: ATCC 90029, 24 h
Saccharomyces cerevisiae = experiment: Antimicrobial activity against Saccharomyces cerevisiae ATCC 9763 after 24 hrs by microbroth dilution method; conditions: ATCC 9763, 24 h
Proteus vulgaris = experiment: Antimicrobial activity against Proteus vulgaris ATCC 8427 after 24 hrs by microbroth dilution method; conditions: ATCC 8427, 24 h
Candida = experiment: Antimicrobial activity against Candida mycoderma after 24 hrs by microbroth dilution method
Staphylococcus aureus [2] = experiment: Antimicrobial activity against methicillin-resistant Staphylococcus aureus N315 after 24 hrs by microbroth dilution method; conditions: N315, 24 h
Bacillus spizizenii = experiment: Antimicrobial activity against Bacillus subtilis ATCC 6633 after 24 hrs by microbroth dilution method; conditions: ATCC 6633, 24 h
Shigella dysenteriae [3] = experiment: Antimicrobial activity against Shigella dysenteriae ATCC 51252 after 24 hrs by microbroth dilution method; conditions: ATCC 51252, 24 h
Micrococcus luteus = experiment: Antimicrobial activity against Micrococcus luteus ATCC 4698 after 24 hrs by microbroth dilution method; conditions: NCTC 2665, 24 h
Cyberlindnera jadinii = experiment: Antimicrobial activity against Candida utilis ATCC 9950 after 24 hrs by microbroth dilution method; conditions: Williopsis jadinii, ATCC 9950, 24 h
Escherichia coli = experiment: Antimicrobial activity against Escherichia coli […] after 24 hrs by microbroth dilution method
Pseudomonas aeruginosa = experiment: Antimicrobial activity against Pseudomonas aeruginosa ATCC 27853 after 24 hrs by microbroth dilution method; conditions: ATCC 27853, 24 h
Shigella dysenteriae [4] = experiment: Ratio of chloromycin MIC to compound MIC for Shigella dysenteriae ATCC 51252
Shigella dysenteriae [5] = experiment: Ratio of berberine MIC to compound MIC for Shigella dysenteriae ATCC 51252

| Structure (SMILES) | MIC (Staphylococcus aureus [1]) [µg/mL] | MIC80 (Candida albicans) [µg/mL] | MIC80 (Saccharomyces cerevisiae) [µg/mL] | MIC (Proteus vulgaris) [µg/mL] | MIC80 (Candida) [µg/mL] | MIC (Staphylococcus aureus [2]) [µg/mL] | MIC (Bacillus spizizenii) [µg/mL] | MIC (Shigella dysenteriae [3]) [µg/mL] | MIC (Micrococcus luteus) [µg/mL] | MIC80 (Cyberlindnera jadinii) [µg/mL] | MIC (Escherichia coli) [µg/mL] | MIC (Pseudomonas aeruginosa) [µg/mL] | Ratio (Shigella dysenteriae [4]) | Ratio (Shigella dysenteriae [5]) |
| --- | --- | --- | --- | --- | --- | --- | --- | --- | --- | --- | --- | --- | --- | --- |
| COc1ccc2cc3[n+](cc2c1OCCN(CCn1cnc2ccccc21)Cc1ccc(F)cc1F)CCc1cc2c(cc1-3)OCO2.[Cl-] | 16 | 32 | 32 | 32 | 32 | 32 | 32 | 8 | 16 | 16 | 32 | 16 | – | – |
| COc1ccc2cc3[n+](cc2c1OCCN(CCn1cnc2cc(C)c(C)cc21)Cc1ccc(F)cc1F)CCc1cc2c(cc1-3)OCO2.[Cl-] | 32 | 32 | 16 | 8 | 16 | 32 | 16 | 4 | 16 | 16 | 32 | 8 | 8 | 64 |
| COc1ccc2cc3[n+](cc2c1OCCN(CCn1cncn1)Cc1cccc(Cl)c1)CCc1cc2c(cc1-3)OCO2.[Cl-] | – | 16 | 32 | – | 4 | – | 16 | – | 32 | 8 | – | – | – | – |
| CCn1cc(C(=O)O)c(=O)c2cc(F)c(N3CCNCC3)cc21 [NORFLOXACIN] | – | – | – | – | – | – | 1 (≈ 3.13 µM) | – | 2 (≈ 6.26 µM) | – | – | – | – | – |
| Clc1ccc(CN(CCBr)CCn2cncn2)cc1 | – | 128 (≈ 372 µM) | 64 (≈ 186 µM) | – | 256 (≈ 745 µM) | – | 256 (≈ 745 µM) | – | 512 (≈ 1490 µM) | 128 (≈ 372 µM) | – | – | – | – |
| COc1ccc2cc3[n+](cc2c1OCCN(CCn1ccnc1)Cc1ccc(F)cc1F)CCc1cc2c(cc1-3)OCO2.[Cl-] | 8 | 32 | 32 | 32 | 32 | 16 | 16 | 16 | 32 | 32 | 32 | 16 | – | – |
| Fc1ccc(CN(CCBr)CCn2cnc3ccccc32)c(F)c1 | 128 (≈ 325 µM) | 128 (≈ 325 µM) | 128 (≈ 325 µM) | 512 (≈ 1300 µM) | 64 (≈ 162 µM) | 256 (≈ 649 µM) | 256 (≈ 649 µM) | 64 (≈ 162 µM) | 256 (≈ 649 µM) | 128 (≈ 325 µM) | 512 (≈ 1300 µM) | 128 (≈ 325 µM) | – | – |
| Fc1ccc(CN(CCBr)CCn2ccnc2)c(F)c1 | 64 (≈ 186 µM) | 64 (≈ 186 µM) | 128 (≈ 372 µM) | 256 (≈ 744 µM) | 32 (≈ 93 µM) | 64 (≈ 186 µM) | 128 (≈ 372 µM) | 128 (≈ 372 µM) | 64 (≈ 186 µM) | 64 (≈ 186 µM) | 128 (≈ 372 µM) | 32 (≈ 93 µM) | – | – |
| COc1ccc2cc3[n+](cc2c1OC)CCc1cc2c(cc1-3)OCO2 [BERBERINE] | – | > 512 | 128 | – | 128 | – | > 512 | – | > 512 | 256 | – | – | – | – |
| Fc1ccccc1CN(CCBr)CCn1cncn1 | – | 32 (≈ 97.8 µM) | 64 (≈ 196 µM) | – | 256 (≈ 782 µM) | – | 256 (≈ 782 µM) | – | 64 (≈ 196 µM) | 128 (≈ 391 µM) | – | – | – | – |
| Clc1ccc(CN(CCBr)CCn2cncn2)c(Cl)c1 | – | 32 (≈ 84.6 µM) | 256 (≈ 677 µM) | – | 256 (≈ 677 µM) | – | 256 (≈ 677 µM) | – | 32 (≈ 84.6 µM) | 256 (≈ 677 µM) | – | – | – | – |
| Clc1ccccc1CN(CCBr)CCn1cncn1 | – | 64 (≈ 186 µM) | 256 (≈ 745 µM) | – | 256 (≈ 745 µM) | – | 256 (≈ 745 µM) | – | 64 (≈ 186 µM) | 128 (≈ 372 µM) | – | – | – | – |
| COc1ccc2cc3[n+](cc2c1OCCN(CCn1cncn1)Cc1ccc(Cl)c(Cl)c1)CCc1cc2c(cc1-3)OCO2.[Cl-] | – | 8 | 32 | – | 4 | – | 8 | – | 16 | 32 | – | – | – | – |
| Clc1cccc(CN(CCBr)CCn2cncn2)c1 | – | 64 (≈ 186 µM) | 128 (≈ 372 µM) | – | 256 (≈ 745 µM) | – | 256 (≈ 745 µM) | – | 64 (≈ 186 µM) | 256 (≈ 745 µM) | – | – | – | – |
| Fc1ccc(CN(CCBr)CCSc2nc3ccccc3[nH]2)c(F)c1 | > 512 | > 512 | 512 (≈ 1200 µM) | > 512 | > 512 | > 512 | > 512 | > 512 | > 512 | 512 (≈ 1200 µM) | > 512 | > 512 | – | – |
